Reference: patent US9833497B2, “Human originated EGF domain proteins and use of the same” (CHENGDU SOURCEBIO LIMITED-LIABILITY COMPANY, priority 2013, dated 2017)

Experiments:
Format in all cases: cell-based
[1] = tested on: Proteus mirabilis; assay: MIC against Gram-negative bacteria: Proteus mirabilis; settings: for MIC P. mirabilis / MIC (μg/mL) P. mirabilis / MIC against P. mirabilis: 5×10^5 CFU/mL
In short: (§1)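 MIC, the lowest recombinant protein concentration giving no bacterial growth, found by two-fold serial dilution of human EGF-domain proteins in triplicate. Inoculum 5×10^5 CFU/mL in LB from cultures at McFarland 0.5; plates incubated at 37° C, 175 rpm shaking.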

[2] = tested on: Moraxella catarrhalis; assay: MIC against Gram-negative bacteria: Moraxella catarrhalis; settings: for MIC M. catarrhalis / MIC (μg/mL) M. catarrhalis / MIC against M. catarrhalis: 5×10^5 CFU/mL
In short: as §1

[3] = tested on: Citrobacter diversus; assay: MIC against Gram-negative bacteria: Citrobacter diversus; settings: for MIC C. diversus / MIC (μg/mL) C. diversus / MIC against C. diversus: 5×10^5 CFU/mL
In short: as §1

[4] = tested on: Serratia marcescens; assay: MIC against Gram-negative bacteria: Serratia marcescens; settings: for MIC S. marcescens / MIC (μg/mL) S. marcescens / MIC against S. marcescens: 5×10^5 CFU/mL
In short: as §1

[5] = tested on: Aeromonas hydrophila; assay: MIC against Gram-negative bacteria: Aeromonas hydrophila; settings: for MIC A. hydrophila / MIC (μg/mL) A. hydrophila / MIC against A. hydrophila: 5×10^5 CFU/mL
In short: as §1

[6] = tested on: E. coli BL21; assay: MIC against Gram-negative bacteria: E. coli BL21; settings: for MIC E. coli BL21 / MIC (μg/mL) E. coli BL21 / MIC against E. coli BL21: 5×10^5 CFU/mL
In short: as §1

[7] = tested on: Enterobacter cloacae; assay: MIC against Gram-negative bacteria: Enterobacter cloacae; settings: for MIC E. cloacae / MIC (μg/mL) E. cloacae / MIC against E. cloacae: 5×10^5 CFU/mL
In short: as §1

[8] = tested on: E. coli DH5α; assay: Antibacterial activity: MIC and growth curve against E. coli DH5α in 96-well plate; settings: minimal inhibitory concentration against E. coli DH5α; 96-well plate, 5×10^5 CFU/mL, 37° C., judged after 8 h
In short: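 MIC taken as lowest protein level with no bacterial growth, tracked by A600 every 30 min during 37 °C, 175 rpm culture. Two-fold protein series 50-12.5 μg/mL final, triplicate wells, against 5×10^5 CFU/mL of LB-washed mid-log cells.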

[9] = tested on: Pseudomonas aeruginosa; assay: MIC against Gram-negative bacteria: Pseudomonas aeruginosa; settings: for MIC P. aeruginosa / MIC (μg/mL) P. aeruginosa / MIC against P. aeruginosa: 5×10^5 CFU/mL
In short: as §1

[10] = tested on: Klebsiella pneumonia; assay: MIC against Gram-negative bacteria: Klebsiella pneumonia; settings: for MIC K. pneumonia / MIC (μg/mL) K. pneumonia / MIC against K. pneumonia: 5×10^5 CFU/mL
In short: as §1

[11] = tested on: Proteus vulgaris; assay: MIC against Gram-negative bacteria: Proteus vulgaris; settings: for MIC P. vulgaris / MIC (μg/mL) P. vulgaris / MIC against P. vulgaris: 5×10^5 CFU/mL
In short: as §1

[12] = P. mirabilis, 10 h cultivation at 37° C.
[13] = M. catarrhalis, 10 h cultivation at 37° C.
[14] = C. diversus, 10 h cultivation at 37° C.
[15] = S. marcescens, 10 h cultivation at 37° C.
[16] = A. hydrophila, 10 h cultivation at 37° C.
[17] = E. coli BL21, 10 h cultivation at 37° C.
[18] = E. cloacae, 10 h cultivation at 37° C.
[19] = P. aeruginosa, 10 h cultivation at 37° C.
[20] = K. pneumonia, 10 h cultivation at 37° C.
[21] = P. vulgaris, 10 h cultivation at 37° C.
[22] = 10 h cultivation at 37° C., two-fold serial dilution
[23] = Proteus mirabilis, 96-well plate, 37° C., 10 h
[24] = Moraxella catarrhalis, 96-well plate, 37° C., 10 h
[25] = Citrobacter diversus, 96-well plate, 37° C., 10 h
[26] = Serratia marcescens, 96-well plate, 37° C., 10 h
[27] = Aeromonas hydrophila, 96-well plate, 37° C., 10 h
[28] = E. coli BL21, 96-well plate, 37° C., 10 h
[29] = Enterobacter cloacae, 96-well plate, 37° C., 10 h
[30] = Pseudomonas aeruginosa, 96-well plate, 37° C., 10 h
[31] = Klebsiella pneumonia, 96-well plate, 37° C., 10 h
[32] = Proteus vulgaris, 96-well plate, 37° C., 10 h

PRT714 (HINECLSKKVSGCSQDCQDLPVSYKCKCWPGFQLKDDGKTCV; listed as Homo sapiens)
MIC P. mirabilis ([1]; 96-well plate, 37° C., 10 h): 12.5 µg/mL | MIC M. catarrhalis ([2]; 96-well plate, 37° C., 10 h): 50 µg/mL | MIC C. diversus ([3]; 96-well plate, 37° C., 10 h): 12.5 µg/mL | MIC S. marcescens ([4]; 96-well plate, 37° C., 10 h): 12.5 µg/mL | MIC A. hydrophila ([5]; 96-well plate, 37° C., 10 h): 50 µg/mL | MIC E. coli BL21 ([6]; 96-well plate, 37° C., 10 h): 25 µg/mL | MIC E. cloacae ([7]; 96-well plate, 37° C., 10 h): 12.5 µg/mL | MIC [8]: 12.5 µg/mL | MIC P. aeruginosa ([9]; 96-well plate, 37° C., 10 h): 12.5 µg/mL | MIC K. pneumonia ([10]; 96-well plate, 37° C., 10 h): 12.5 µg/mL | MIC P. vulgaris ([11]; 96-well plate, 37° C., 10 h): 50 µg/mL

PRT936 (VLAPCSPNPCENAAVCKESPNFESYTCLCAPGWQGQRCT; listed as Homo sapiens)
MIC [1, 12]: 50 µg/mL | MIC [2, 13]: 12.5 µg/mL | MIC [3, 14]: 50 µg/mL | MIC [4, 15]: 50 µg/mL | MIC [5, 16]: 25 µg/mL | MIC [6, 17]: 12.5 µg/mL | MIC [7, 18]: 12.5 µg/mL | MIC [8]: 25 µg/mL | MIC [9, 19]: 25 µg/mL | MIC [10, 20]: 50 µg/mL | MIC [11, 21]: 12.5 µg/mL

PRT1082 (GTNPCSVNNGDCSQLCLPTSETTRSCMCTAGYSLRSGQQACE; listed as Homo sapiens)
MIC P. mirabilis [1, 22]: 25 µg/mL | MIC M. catarrhalis [2, 22]: 50 µg/mL | MIC C. diversus [3, 22]: 25 µg/mL | MIC S. marcescens [4, 22]: 25 µg/mL | MIC A. hydrophila [5, 22]: 12.5 µg/mL | MIC E. coli BL21 [6, 22]: 12.5 µg/mL | MIC E. cloacae [7, 22]: 25 µg/mL | MIC [8]: 50 µg/mL | MIC P. aeruginosa [9, 22]: 25 µg/mL | MIC K. pneumonia [10, 22]: 50 µg/mL | MIC P. vulgaris [11, 22]: 12.5 µg/mL

PRT240 (NINECEVEPCKNGGICTDLVANYSCECPGEFMGRNCQ; listed as Homo sapiens)
MIC (μg/mL) P. mirabilis [1, 12]: 100 µg/mL | MIC (μg/mL) M. catarrhalis [2, 13]: 12.5 µg/mL | MIC (μg/mL) C. diversus [3, 14]: 25 µg/mL | MIC (μg/mL) S. marcescens [4, 15]: 12.5 µg/mL | MIC (μg/mL) A. hydrophila [5, 16]: 12.5 µg/mL | MIC (μg/mL) E. coli BL21 [6, 17]: 12.5 µg/mL | MIC (μg/mL) E. cloacae [7, 18]: 25 µg/mL | MIC [8]: 25 µg/mL | MIC (μg/mL) P. aeruginosa [9, 19]: 25 µg/mL | MIC (μg/mL) K. pneumonia [10, 20]: 12.5 µg/mL | MIC (μg/mL) P. vulgaris [11, 21]: 100 µg/mL

PRT497 (CACPHSPPASFSPTCVLEGDHDFRCDACLLGYEGKHCERCSSSYYGNPQTPGGSCQK; listed as Homo sapiens)
MIC against P. mirabilis ([1]; 96-well plate, 37° C., 10 h): 50 µg/mL | MIC against M. catarrhalis ([2]; 96-well plate, 37° C., 10 h): 12.5 µg/mL | MIC against C. diversus ([3]; 96-well plate, 37° C., 10 h): 25 µg/mL | MIC against S. marcescens ([4]; 96-well plate, 37° C., 10 h): 50 µg/mL | MIC against A. hydrophila ([5]; 96-well plate, 37° C., 10 h): 50 µg/mL | MIC against E. coli BL21 ([6]; 96-well plate, 37° C., 10 h): 25 µg/mL | MIC against E. cloacae ([7]; 96-well plate, 37° C., 10 h): 25 µg/mL | MIC [8]: 12.5 µg/mL | MIC against P. aeruginosa ([9]; 96-well plate, 37° C., 10 h): 50 µg/mL | MIC against K. pneumonia ([10]; 96-well plate, 37° C., 10 h): 12.5 µg/mL | MIC against P. vulgaris ([11]; 96-well plate, 37° C., 10 h): 12.5 µg/mL

PRT625 (CNCSGRSEECTFDRELFRSTGHGGRCHHCRDHTAGPHCERCQENFYHWDPRMPCQP; listed as Homo sapiens)
MIC P. mirabilis ([1]; 96-well plate, 37° C., 10 h): 50 µg/mL | MIC M. catarrhalis ([2]; 96-well plate, 37° C., 10 h): 25 µg/mL | MIC C. diversus ([3]; 96-well plate, 37° C., 10 h): 12.5 µg/mL | MIC S. marcescens ([4]; 96-well plate, 37° C., 10 h): 12.5 µg/mL | MIC A. hydrophila ([5]; 96-well plate, 37° C., 10 h): 25 µg/mL | MIC E. coli BL21 ([6]; 96-well plate, 37° C., 10 h): 25 µg/mL | MIC E. cloacae ([7]; 96-well plate, 37° C., 10 h): 50 µg/mL | MIC [8]: 12.5 µg/mL | MIC P. aeruginosa ([9]; 96-well plate, 37° C., 10 h): 12.5 µg/mL | MIC K. pneumonia ([10]; 96-well plate, 37° C., 10 h): 25 µg/mL | MIC P. vulgaris ([11]; 96-well plate, 37° C., 10 h): 25 µg/mL

PRT919 (NIDDCPGNNCKNGGACVDGVNTYNCRCPPEWTGQYCT; listed as Homo sapiens)
MIC [1, 12]: 25 µg/mL | MIC [2, 13]: 12.5 µg/mL | MIC [3, 14]: 25 µg/mL | MIC [4, 15]: 50 µg/mL | MIC [5, 16]: 50 µg/mL | MIC [6, 17]: 12.5 µg/mL | MIC [7, 18]: 25 µg/mL | MIC [8]: 50 µg/mL | MIC [9, 19]: 50 µg/mL | MIC [10, 20]: 12.5 µg/mL | MIC [11, 21]: 25 µg/mL

PRT1389 (PEEQCIDPTCFGHGTCIMGVCICVPGYKGEICE; listed as Homo sapiens)
MIC against P. mirabilis ([1]; Proteus mirabilis, 10 h cultivation at 37° C.): 12.5 µg/mL | MIC against M. catarrhalis ([2]; Moraxella catarrhalis, 10 h cultivation at 37° C.): 12.5 µg/mL | MIC against C. diversus ([3]; Citrobacter diversus, 10 h cultivation at 37° C.): 12.5 µg/mL | MIC against S. marcescens ([4]; Serratia marcescens, 10 h cultivation at 37° C.): 12.5 µg/mL | MIC against A. hydrophila ([5]; Aeromonas hydrophila, 10 h cultivation at 37° C.): 12.5 µg/mL | MIC against E. coli BL21 [6, 17]: 12.5 µg/mL | MIC against E. cloacae ([7]; Enterobacter cloacae, 10 h cultivation at 37° C.): 25 µg/mL | MIC [8]: 25 µg/mL | MIC against P. aeruginosa ([9]; Pseudomonas aeruginosa, 10 h cultivation at 37° C.): 25 µg/mL | MIC against K. pneumonia ([10]; Klebsiella pneumonia, 10 h cultivation at 37° C.): 12.5 µg/mL | MIC against P. vulgaris ([11]; Proteus vulgaris, 10 h cultivation at 37° C.): 25 µg/mL

PRT1247 (WGARCEHACQCQHGTCHPRSGACRCEPGWWGAQCA; listed as Homo sapiens)
MIC against P. mirabilis [1, 23]: 25 µg/mL | MIC against M. catarrhalis [2, 24]: 12.5 µg/mL | MIC against C. diversus [3, 25]: 25 µg/mL | MIC against S. marcescens [4, 26]: 25 µg/mL | MIC against A. hydrophila [5, 27]: 12.5 µg/mL | MIC against E. coli BL21 [6, 28]: 12.5 µg/mL | MIC against E. cloacae [7, 29]: 12.5 µg/mL | MIC [8]: 50 µg/mL | MIC against P. aeruginosa [9, 30]: 12.5 µg/mL | MIC against K. pneumonia [10, 31]: 25 µg/mL | MIC against P. vulgaris [11, 32]: 12.5 µg/mL

PRT58 (PCALGEGPACAHCAPDNSTRCGSCNPGYVLAQGLCR; listed as Homo sapiens)
MIC (μg/mL) P. mirabilis [1, 23]: 100 µg/mL | MIC (μg/mL) M. catarrhalis [2, 24]: 25 µg/mL | MIC (μg/mL) C. diversus [3, 25]: 12.5 µg/mL | MIC (μg/mL) S. marcescens [4, 26]: 50 µg/mL | MIC (μg/mL) A. hydrophila [5, 27]: 12.5 µg/mL | MIC (μg/mL) E. coli BL21 [6, 28]: 25 µg/mL | MIC (μg/mL) E. cloacae [7, 29]: 12.5 µg/mL | MIC [8]: 12.5 µg/mL | MIC (μg/mL) P. aeruginosa [9, 30]: 12.5 µg/mL | MIC (μg/mL) K. pneumonia [10, 31]: 12.5 µg/mL | MIC (μg/mL) P. vulgaris [11, 32]: 25 µg/mL
